The values below come from publication PMC9118553, “In Vivo Bioconcentration of 10 Anionic Surfactants in Rainbow Trout Explained by In Vitro Data on Partitioning and S9 Clearance” (Environmental Science & Technology, 2022).

Read-outs that look alike come from different tables or passages of the source. Marks after values point to notes of the source that are not given here.

Data set [1] is described as follows: RT-S9 substrate depletion assay, individual compounds, with IVIVE. The note with it: for CLint,S9 / CLint,in vivo set to LOD/3 for extrapolation: s9. Here is the method:
The in vitro intrinsic clearance by the S9 fraction of rainbow trout liver was measured for the same 11 anionic surfactants used in the BCF experiment as separate compounds. […] An established RT-S9 substrate depletion assay was employed,[25]−[27] predating the currently available OECD guideline 319B.[28] A single batch of the characterized liver homogenate material was prepared at the US EPA lab in Duluth and shipped on dry ice to the testing facilities at the University of Amsterdam. The test was conducted using the same method applied for a series of cationic surfactants in Droge et al.[29] and is summarized together with the in vitro–in vivo extrapolation in Text S4.
(§1) Text S4: Trout liver S9 parent depletion assay details and IVIVE
(§2) Liver tissue was separately pooled from the same five rainbow trout (three males/two females, ~300 g, liver weight ~3 g) used also for the RT-S9 study on a series of cationic surfactants (Droge et al., 2021b). The liver sample was homogenized in an appropriate buffer and then centrifuged to yield a 13,000 x g supernatant (the ‘S9 fraction’, lacking only mitochondrial fractions). No further refinement towards microsomal fractions was made to remove cytosolic and lysosomal components.
(§3) Upon arrival at the University of Amsterdam the liver
(§4) S9 material was stored in a -80 °C freezer until use.
(§5) Individual chemicals were first dissolved in methanol and then further diluted to 20% methanol in 100 mM phosphate buffer to make a ~20 µM stock solution, which was then spiked as 10 µL in 190 µL of active S9 mixture. The active S9 mixture consisted of 100 mM potassium phosphate-buffered saline (PPBS) adjusted to pH 7.8, 2 mM β-NADPH, 2 mM UDPGA, 0.1 mM PAPS, 5 mM GSH, 10 μg/mL alamethicin (in methanol carrier; 0.1% v/v final concentration), and 2 mg/mL S9 protein. The substrate depletion assays were performed using the multiple vial method described in OECD TG 319B, employing two or three separately spiked series.
(§6) Reactions were performed at 11 °C in a temperature-controlled water bath (B. Braun Frigomix-R) that was placed on a 2 cm travel path shaker (Gerhardt LS 10) set at 45 rpm. As a positive […]
(§7) alkylsulfonates, no additional assays with inactivated RT-S9 were performed.
(§8) Reactions were quenched with 600 µL ice-cold acetonitrile. After 10 s vortexing and 5 min centrifugation (Hermle Z300, 2500 rpm), 100 µL clear supernatant was transferred into 300 µL glass inserts placed in new autosampler vials, and mixed with 100 µL pure water. Concentrations were measured using a Prominence UFLC-XR system (Shimadzu) coupled to a tandem mass spectrometer (QTRAP 4000, Applied Biosystems) with a Turbo Ion spray source operated at 400 ◦C. For chromatographic separations, a 100 x 2.1mm x 2.7 µm Supelco Ascentis Express column was used (40 °C), with eluent A: pure water with 2 mM ammonium acetate, and eluent […]
(§9) prepared in 50% acetonitrile/water, calibration curves used covered at least four points in a log-linear range. The lowest external standard to fit the log-linear calibration curve served as limit of quantification, requiring a peak of at least 10x the average noise.
(§10) Each vial was treated as an independent vial with recorded exposure time. Log-transformed concentration data of the parent compound were plotted against exposure time (min) and analysed using Graphpad PRISM 8. […]
(§11) the slope (min-1) was multiplied by -2.3 and by 60 (min h-1) to obtain a first order depletion rate […]
(§12) Extrapolation of kdep to whole body rate biotransformation rate constant (kB-S9) The basic approach to extrapolate first order depletion rate constants (k dep) to whole body

Data set [2] can be described thus: RT-S9 substrate depletion assay, mixture of 9 anionic surfactants (AnionMixture). Particulars: for Slope of depletion curve (log concentration vs time): tested in a mixture. As for the experimental part: An established RT-S9 substrate depletion assay was employed,[25]−[27] predating the currently available OECD guideline 319B.[28] A single batch of the characterized liver homogenate material was prepared at the US EPA lab in Duluth and shipped on dry ice to the testing facilities at the University of Amsterdam. The test was conducted using the same method applied for a series of cationic surfactants in Droge et al.[29] and is summarized together with the in vitro–in vivo extrapolation in Text S4.
as §1, §2, §3, §4, §5, §6, §7, §8, §9, §10, §11, §12

The conditions of data set [3]: cited from earlier work; for log DMW, membrane-water distribution ratio: marked * = measured, used for IVIVE, same values as Table 3.
Setting [4] is: both, rainbow trout, 1 µM, pH 7.8.

Consider `CCCCCCCCCCCCCCS(=O)(=O)O` [C14SO3, tetradecylsulfonate], for which, in data set [1], the “factor by which kB-S9 was less than kB-BCF” value amounted to 11; the “kB-S9, biotransformation rate constant from in vitro RT-S9 assay” value (shortened to “kB-S9, biotransformation rate constant”) is listed as 0.002 ^h h^–1; the “reaction rate set to LOD/3 for extrapolation” value was 0.05 h⁻¹; the “CLint,S9” value is listed as “n.s”. In addition, the “CLint,in vivo set to LOD/3 for extrapolation” value in data set [1] is recorded as ~ 3.5 mL h-1 g liver-1. The “Slope of depletion curve (log concentration vs time)” value (shortened to “Slope … (log concentration vs time)”) in data set [2] is given as -0.0010 min-1. In data set [3], the “log DMW, membrane-water distribution ratio” value is recorded as 4.95. In data set [3] (measurement from Droge), the “log DMLW” value is reported as 4.95 ^e L kg^–1.
In the case of `CCCCCCCCCCCCCOS(=O)(=O)O` [C13SO4, tridecylsulfate], in data set [1], the “kB-S9, biotransformation rate constant” value is 0.028 (0.022–0.034) h^–1 and the “CLint,S9” value is 0.40 mL h-1 mg protein-1. Moreover, the “Slope … (log concentration vs time)” value in data set [2] is -0.0042 min-1. In addition, the “log DMW, membrane-water distribution ratio” value in data set [3] is given as 5.21. Besides, the “log DMLW” value in data set [3] (measurement from Droge) was 5.21 ^e L kg^–1.
As to `CCCCCCCCCCS(=O)(=O)O` [C10SO3, decylsulfonate], in data set [1], the “kB-S9, biotransformation rate constant” value is given as 0.366 (0.33–0.40) h^–1 and the “CLint,S9” value turned out to be 4.54 mL h-1 mg protein-1. For the same molecule, in data set [2], the “clearance rate lower in AnionMixture compared to single compound assay (factor)” value is listed as 6 and the “Slope … (log concentration vs time)” value is recorded as -0.0111 min-1. Moreover, the “log DMW, membrane-water distribution ratio” value in data set [3] is listed as 3.01. For the same molecule, the “log DMLW” value in data set [3] (measurement from Droge) was 3.01 ^e L kg^–1.
With `CCCCCCCCCCc1ccc(S(=O)(=O)O)cc1` [C10-1-LAS, 1-n-(p-sulfophenyl)decane], in data set [1], the “kB-S9, biotransformation rate constant” value is reported as 0.041 (0.037–0.045) h^–1 and the “CLint,S9” value was found to be 0.61 mL h-1 mg protein-1. Moreover, in data set [2], the “clearance rate lower in AnionMixture compared to single compound assay (factor)” value is recorded as “twofold” and the “Slope … (log concentration vs time)” value was -0.0050 min-1.
`CCCCCCCCCCCS(=O)(=O)O` [C11SO3, undecylsulfonate]: in data set [1], the “kB-S9, biotransformation rate constant” value was 0.225 (0.21–0.24) h^–1 and the “CLint,S9” value is recorded as 3.05 mL h-1 mg protein-1. In data set [3], the “log DMW, membrane-water distribution ratio” value is listed as 3.39.
As for `CCCCCCCCCCCCOCCOCCOCCOCCOS(=O)(=O)O` [C12-EO4-SO4, dodecyltetraethoxysulfate], in data set [1], the “kB-S9, biotransformation rate constant” value is given as 0.084 (0.059–0.109) h^–1 and the “CLint,S9” value is 1.30 mL h-1 mg protein-1. Further, the “Slope … (log concentration vs time)” value in data set [2] is on record as -0.0216 min-1. In addition, the “log DMW, membrane-water distribution ratio” value in data set [3] is recorded as 4.24. For the same molecule, in data set [3] (measurement from Droge et al.), the “log DMLW” value was 4.24 ^f L kg^–1.
Regarding `CCCCCCCCCCCOS(=O)(=O)O` [C11SO4, undecylsulfate], in data set [1], the “kB-S9, biotransformation rate constant” value is 0.151 (0.136–0.166) h^–1 and the “CLint,S9” value turned out to be 2.81 mL h-1 mg protein-1. In data set [2], the “clearance rate lower in AnionMixture compared to single compound assay (factor)” value is recorded as “twofold” and the “Slope … (log concentration vs time)” value was -0.0202 min-1. For the same molecule, the “log DMW, membrane-water distribution ratio” value in data set [3] is listed as 4.16.
In the case of `CCCCCCCCCCCCCCCCS(=O)(=O)O` [C16SO3, hexadecylsulfonate], in data set [1], the “kB-S9, biotransformation rate constant” value is on record as 0.002 ^h h^–1; the “reaction rate set to LOD/3 for extrapolation” value was 0.05 h⁻¹; the “CLint,S9” value is listed as “n.s”; the “CLint,in vivo set to LOD/3 for extrapolation” value was ~ 3.5 mL h-1 g liver-1. Besides, in data set [2], the “Slope … (log concentration vs time)” value is reported as -0.0008 min-1. Also, the “log DMW, membrane-water distribution ratio” value in data set [3] is listed as 6.19.
Turning to `CCCCC(CC)COC(=O)CC(C(=O)OCC(CC)CCCC)S(=O)(=O)O` (centres unmarked) [DOSS, bis(2-ethylhexyl)sulfosuccinate], in data set [1] (setting [4]), the “factor by which kB-S9 was less than kB-BCF” value is 6 and the “kB-S9, biotransformation rate constant” value is on record as 0.011 (0.009–0.013) h^–1. Moreover, the “CLint,S9” value in data set [1] was 0.14 mL h-1 mg protein-1. Further, the “Slope … (log concentration vs time)” value in data set [1] (tested individually, 2 mg/mL S9 protein, 11 °C) was -0.0021 min-1. Further, the “Slope … (log concentration vs time)” value in data set [2] was -0.0021 min-1. Further, the “log DMW, membrane-water distribution ratio” value in data set [3] is 4.58. Further, in data set [3] (measurement from Droge et al.), the “log DMLW” value is 4.58 ^f L kg^–1.
Turning to `CCCCCCCCCCCCCS(=O)(=O)O` [C13SO3, tridecylsulfonate], in data set [1], the “kB-S9, biotransformation rate constant” value is 0.032 (0.028–0.036) h^–1 and the “CLint,S9” value is recorded as 0.45 mL h-1 mg protein-1. Further, the “log DMW, membrane-water distribution ratio” value in data set [3] was 4.46. Besides, the “log DMLW” value in data set [3] (measurement from Droge) was 4.46 ^e L kg^–1.
